Legend:
awake Wistar rats = assay: Respiration in normoxia and hypoxia in the awake rat (plethysmographic chamber); format: in vivo; conditions: for Minute lung ventilation (peak respiratory response): after haloperidol 0.9 mg/kg i.p. and N-oleoyl-dopamine 40 mg/kg i.p.
Method: The study was performed in awake Wistar rats in a computerized plethysmographic chamber for small rodents. Respiratory frequency, tidal volume and pulmonary ventilation were measured. The experimental protocol included recordings in normoxia (breathing with atmospheric air), two levels of hypoxic stimulus (8% and 12% O2 in N2), intraperitoneal (i.p.) administration of N-oleoyl-dopamine (in a dose of 40 mg/kg) and repeated recordings for both normoxic and hypoxic states. Additionally, further experiments with the dopamine receptor antagonist haloperidol (in a dose of 0.9 mg/kg, i.p.) were performed. In those experiments, haloperidol was administered prior to N-oleoyl-dopamine and the recordings according the above-mentioned protocol were repeated. […]

[1] = biological target: TRPV1 vanilloid receptors (Homo sapiens, UniProt Q8NER1); conditions: mentioned in the literature; cited from earlier work
Chain of TRPV1 vanilloid receptors (Q8NER1 whole entry): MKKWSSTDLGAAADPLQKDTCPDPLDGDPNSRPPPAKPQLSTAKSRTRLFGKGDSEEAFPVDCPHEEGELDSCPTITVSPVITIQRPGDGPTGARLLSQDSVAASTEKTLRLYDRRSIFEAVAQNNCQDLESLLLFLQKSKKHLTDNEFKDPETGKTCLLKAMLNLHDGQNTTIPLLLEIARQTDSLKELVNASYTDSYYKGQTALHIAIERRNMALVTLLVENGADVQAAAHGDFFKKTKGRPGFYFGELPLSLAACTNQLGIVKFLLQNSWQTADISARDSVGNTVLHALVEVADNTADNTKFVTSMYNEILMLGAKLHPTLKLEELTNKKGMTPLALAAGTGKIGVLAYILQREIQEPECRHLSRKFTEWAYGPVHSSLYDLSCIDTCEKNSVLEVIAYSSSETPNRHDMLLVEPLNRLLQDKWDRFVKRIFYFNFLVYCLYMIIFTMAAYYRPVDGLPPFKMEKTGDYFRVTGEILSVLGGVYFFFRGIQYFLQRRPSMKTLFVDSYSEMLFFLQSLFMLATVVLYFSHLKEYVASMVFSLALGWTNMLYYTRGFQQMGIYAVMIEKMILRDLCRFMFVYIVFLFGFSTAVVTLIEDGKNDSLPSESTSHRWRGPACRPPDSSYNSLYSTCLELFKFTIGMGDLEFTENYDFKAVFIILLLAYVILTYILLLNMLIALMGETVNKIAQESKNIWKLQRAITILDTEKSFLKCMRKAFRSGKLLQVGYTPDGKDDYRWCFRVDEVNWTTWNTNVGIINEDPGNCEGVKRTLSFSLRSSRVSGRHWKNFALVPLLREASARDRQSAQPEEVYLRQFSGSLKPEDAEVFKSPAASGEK

[2] = tested on: animal model of Parkinson's disease; assay: Muscle rigidity in reserpine + α-methyl-tyrosine model of Parkinson's disease (EMG); format: in vivo, rats; conditions: 10 mg/kg
Method: Symptoms of the Parkinson's disease, particularly muscle rigidity during flexion and extension movements in the ankle joint, were induced with reserpine (2.5 mg/kg, i.p.) and α-methyl-tyrosine (α-MT, 250 mg/kg, i.p.) administered at a 16-h interval. Afterwards, 3'-O-methyl-N-oleoyl-dopamine (O-Me-OLDA) was administered at a dose of 10 mg/kg and the muscular tone was measured using electromyographic (EMG) techniques. The control groups consisted of a) only vehiculum-treated animals in which no symptoms of Parkinson's disease were induced (control), b) animals who received only 3'-O-methyl-N-oleoyl-dopamine (O-Me-OLDA) and c) animals in which symptoms of Parkinson's disease were induced (reserpine + α-MT), but no other treatment was introduced.

[3] = tested on: rat model of Parkinson's disease; conditions: cited from earlier work
[4] = tested on: rat brain membrane system; format: in vivo, Wistar rats; conditions: 20 mg/kg intraperitoneal
Method: N-oleoyl-dopamine was administered to Wistar rats at a dose of 20 mg/kg. After 1, 2, 3 or 24 hours the rat was sacrificed and the brain was resected. From the tissue, the whole lipid fraction, containing all lipids of the brain and the membrane fraction of the rat brain were obtained. Total lipids were obtained by homogenization of the brain in a mixture of chloroform and methanol 2:1 followed by an extraction of the water-soluble fractions and evaporation of the solvent. The membrane phase was obtained according to Xu et al. (Xu, 1998) and extracted with chloroform to obtain membrane lipids. All obtained samples were analyzed by the thin layer chromatography TLC on silica gel plates 60 using a mixture of chloroform and methanol 95:5 as the mobile phase and N-oleoyl-dopamine as the standard. The Retention Factor (Rf) for the N-oleoyl-dopamine standard was equal to 0.24-0.26. At the same level (the same Rf = […]) there were bands corresponding to N-oleoyl-dopamine in the biological samples, that is after systemic N-oleoyl-dopamine injection, but not in the control samples obtained with no N-oleoyl-dopamine injection.

[5] = in vitro conditions; cited from earlier work
[6] = tested on: anesthetized, paralyzed and artificially ventilated Wistar rats; assay: Respiratory response to hypoxia in the anesthetized rat (integrated phrenic nerve activity); format: in vivo; conditions: for peak respiratory response in relation to the starting-point values: substance alone: N-oleoyl-dopamine 20 mg/kg, haloperidol 3 mg/kg, domperidone 0.3 mg/kg; for effect on respiration in the second inhibitory phase of the response to hypoxia: substance alone, 14% and 11 % hypoxia
Method: The study was performed in anesthetized, paralyzed and artificially ventilated Wistar rats. During the experiments, the integrated activity of the phrenic nerve was recorded. This activity reflects the frequency and tidal volume; their product represents the index of minute lung ventilation. The experimental protocol consisted of control recordings for two levels of the hypoxic stimulus: 14% and 11 % O2 in N2. Afterwards, N-oleoyl-dopamine in a dose of 20 mg/kg was given and the recordings were repeated. Additionally, experiments with two dopamine receptor antagonists were performed: first, with the penetrating through the blood-brain barrier D2 dopamine receptor antagonist haloperidol and second, with the non-penetrating through the blood-brain-barrier domperidone. In these studies, after the control recordings, haloperidol (in a dose of 3 mg/kg) or domperidone (in a dose of 0.3 mg/kg) were administered and the recordings repeated. Then, N-oleoyl-dopamine was given and the recordings were repeated.

brain = conditions: after injection into the carotid artery; cited from earlier work
rat = conditions: cited from earlier work
[7] = 8% hypoxia, 40 mg/kg i.p., awake rat
[8] = 8% hypoxia, after 40 mg/kg i.p., awake rat
[9] = normoxia, 40 mg/kg i.p., awake rat
[10] = N-oleoyl-dopamine 20 mg/kg given after domperidone 0.3 mg/kg
[11] = N-oleoyl-dopamine 20 mg/kg given after haloperidol 3 mg/kg

CCCCCCCC/C=C\CCCCCCCC(=O)NCCc1ccc(O)c(OC)c1 [3'-O-methyl-N-oleoyl-dopamine]
reduction of peak respiratory response (awake Wistar rats; [7]): 19%
peak respiratory response (awake Wistar rats; [8]): 1939 ±255 ml/min/kg body weight
decrease of resting ventilation during breathing with atmospheric oxygen (awake Wistar rats; [9]): 23%
resting ventilation during breathing with atmospheric oxygen (awake Wistar rats; normoxia, after 40 mg/kg i.p., awake rat): 779.7 ±148.7 ml/min/kg body weight
action towards TRPV1 vanilloid receptors [1]: agonistic action
muscle rigidity ([2]; rats treated with reserpine 2.5 mg/kg i.p. + α-MT 250 mg/kg i.p.): abolished muscle rigidity
muscle tone in comparison to control recordings ([2]; substance alone, no Parkinson symptoms induced): did not change the muscle tone
muscle tone (force needed for flexion and extension of the ankle joint) ([2]; three-fold elevated level of muscle tone by reserpine, Fig.1): decreases nearly down to the control level

CCCCCCCC/C=C\CCCCCCCC(=O)NCCc1ccc(O)c(O)c1 [N-oleoyl-dopamine]
muscle rigidity [3]: diminishes muscle rigidity
reduction of peak respiratory response (awake Wistar rats; [7]): 41%
peak respiratory response (awake Wistar rats; [8]): 1338.3 ±49.5 ml/min/kg body weight
Minute lung ventilation (peak respiratory response) (awake Wistar rats; 8% hypoxia): 1947.3 ±66.5 ml/min/kg body weight
reduction of peak respiratory response (awake Wistar rats; 12% hypoxia, 40 mg/kg i.p., awake rat): 36%
peak respiratory response (awake Wistar rats; 12% hypoxia, after 40 mg/kg i.p., awake rat): 856.6 ±73.7 ml/min/kg body weight
Minute lung ventilation (peak respiratory response) (awake Wistar rats; 12% hypoxia): 1484.0 ±92.3 ml/min/kg body weight
decrease in respiratory frequency (awake Wistar rats; [9]): 23%
decrease of resting ventilation during breathing with atmospheric oxygen (awake Wistar rats; [9]): 33%
action towards TRPV1 vanilloid receptors [1]: agonistic action
penetration into the membrane system of the brain ([4]; brain taken after 1, 2, 3 or 24 hours): penetrates into the membrane system of the rat brain
time staying unchanged bound to the brain membrane system ([4]; rat brain): at least 24 hours
stability [5]: highly stable
peak respiratory response in relation to the starting-point values ([6]; 11 % hypoxia (O2 in N2)): 38 ±9%
peak respiratory response in relation to the starting-point values ([6]; 14% hypoxia (O2 in N2)): 18 ±10%
effect on respiration in the inhibitory phase [6, 10]: still diminished the respiration
effect on response to hypoxia in the stimulatory phase [6, 10]: did not change the response to hypoxia
effect on respiratory response in the first stimulatory phase [6, 11]: did not restore the respiratory response
effect on respiratory response in the second inhibitory phase [6, 11]: still diminished it
effect on respiration in the second inhibitory phase of the response to hypoxia [6]: reduced the respiratory response to hypoxia
penetration into the brain (brain): ability to penetrate into the brain
locomotor activity (rat): increases the locomotor activity

O=c1[nH]c2ccccc2n1CCCN1CCC(n2c(=O)[nH]c3cc(Cl)ccc32)CC1 [domperidone, reference compound]
peak respiratory response in relation to the starting-point values ([6]; 11 % hypoxia (O2 in N2)): 26 ±5%
peak respiratory response in relation to the starting-point values ([6]; 14% hypoxia (O2 in N2)): 21 ±5%

O=C(CCCN1CCC(O)(c2ccc(Cl)cc2)CC1)c1ccc(F)cc1 [haloperidol, reference compound]
peak respiratory response in relation to the starting-point values ([6]; 11 % hypoxia (O2 in N2)): 22 ±5%
peak respiratory response in relation to the starting-point values ([6]; 14% hypoxia (O2 in N2)): 18 ±3%
effect on respiration in the second inhibitory phase of the response to hypoxia [6]: diminished the respiration
